Measured values taken from PubChem BioAssay AID248 (DTP/NCI, 2004).
Toxic doses and inconclusive results are not listed. Cut-off read from the data, not from the text of the source: active = T/C of 150% or more; inactive = T/C below 125%. Peptide text beside a SMILES is read from it.

Test system: L1210 leukemia ip in BDF1 mice, survival T/C
Assay: NCI In Vivo Anticancer Drug Screen. Data for tumor model L1210 Leukemia (intraperitoneal) in B6D2F1 (BDF1) mice
Conditions: endpoint: mean survival time, higher = longer survival
Summary of the method: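 Mice bearing the transplanted tumor received compound or vehicle. Survival of the treated group was divided by that of the vehicle-treated control group to give the ratio.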

[1] = dose: 100.0 mg/kg/injection, schedule: Q04DX002 (ip), vehicle: Klucel (hydroxypropylcellulose) (HPC)
[2] = dose: 200.0 mg/kg/injection, schedule: Q04DX002 (ip), vehicle: Klucel (hydroxypropylcellulose) (HPC)
[3] = dose: 400.0 mg/kg/injection, schedule: Q04DX002 (ip), vehicle: Klucel (hydroxypropylcellulose) (HPC)
[4] = dose: 100.0 mg/kg/injection, schedule: Q01DX009 (ip), vehicle: saline with Tween-80
[5] = dose: 200.0 mg/kg/injection, schedule: Q01DX009 (ip), vehicle: saline with Tween-80
[6] = dose: 100.0 mg/kg/injection, schedule: Q04DX003 (ip), vehicle: Klucel (hydroxypropylcellulose) (HPC)
[7] = dose: 200.0 mg/kg/injection, schedule: Q04DX003 (ip), vehicle: Klucel (hydroxypropylcellulose) (HPC)
[8] = dose: 400.0 mg/kg/injection, schedule: Q04DX003 (ip), vehicle: Klucel (hydroxypropylcellulose) (HPC)

Measured: T/C

OCC(O)C(O)C(O)C(O)c1nc2ccccc2[nH]1 (stereo not given)
inactive: [1] 105 % of control | [2] 87 % of control | [3] 97 % of control

O=C1C=CC(=Nc2ccc(Cl)cc2)O1
inactive: [4] 104 % of control | [5] 102 % of control | dose: 400.0 mg/kg/injection, schedule: Q01DX009 (ip), vehicle: saline with Tween-80 97 % of control

CSCCC(NC(=O)C(N)C(C)C)C(=O)O (stereo not drawn) (H-Val-Met-OH; configuration not given here)
inactive: dose: 100.0 mg/kg/injection, schedule: Q04DX003 (ip), vehicle: saline 100 % of control | dose: 200.0 mg/kg/injection, schedule: Q04DX003 (ip), vehicle: saline 108 % of control | dose: 400.0 mg/kg/injection, schedule: Q04DX003 (ip), vehicle: saline 103 % of control

CC(C)(C)NC(=O)NCc1ccc(Cl)cc1
inactive: [1] 100 % of control | [2] 88 % of control | [3] 111 % of control

NC(=O)NCCc1ccccc1
inactive: [6] 102 % of control | [7] 97 % of control | [8] 102 % of control

O=C(CNC(=O)NCc1ccccc1)NNC(=O)Nc1cccc(C(F)(F)F)c1
inactive: dose: 50.0 mg/kg/injection, schedule: Q01DX009 (ip), vehicle: saline with Tween-80 102 % of control | [4] 87 % of control | [5] 91 % of control

OC1(C2CCC(C(F)(F)F)CC2)C2C=CC1CC2 (stereo not given)
inactive: dose: 75.0 mg/kg/injection, schedule: Q04DX002 (ip), vehicle: Klucel (hydroxypropylcellulose) (HPC) 93 % of control | dose: 150.0 mg/kg/injection, schedule: Q04DX002 (ip), vehicle: Klucel (hydroxypropylcellulose) (HPC) 93 % of control | dose: 300.0 mg/kg/injection, schedule: Q04DX002 (ip), vehicle: Klucel (hydroxypropylcellulose) (HPC) 100 % of control

CCCCCCCSCCSCCSCCCCCCC
inactive: [6] 101 % of control | [7] 95 % of control | [8] 95 % of control

O=C1C(=O)c2ccccc2-c2ccccc21
inactive: dose: 50.0 mg/kg/injection, schedule: Q04DX003 (ip), vehicle: Klucel (hydroxypropylcellulose) (HPC) 98 % of control | [6] 97 % of control | [7] 98 % of control

Clc1ccc(CSc2ncc(Br)c(Cl)n2)cc1
inactive: dose: 100.0 mg/kg/injection, schedule: Q01DX Z (ip), vehicle: methylcellulose (MC) 90 % of control | dose: 200.0 mg/kg/injection, schedule: Q01DX Z (ip), vehicle: methylcellulose (MC) 99 % of control

Cc1nc(-c2ccc(N=Cc3ccc(N(CCCOS(C)(=O)=O)CCCOS(C)(=O)=O)cc3C)cc2)c(C)s1
inactive: [4] 100 % of control | [5] 93 % of control

CN(C)C(=S)SCC(=O)NC(CO)C(=O)O (stereo not given)
inactive: dose: 100.0 mg/kg/injection, schedule: Q04DX002 (ip), vehicle: saline with Tween-80 100 % of control | dose: 200.0 mg/kg/injection, schedule: Q04DX002 (ip), vehicle: saline with Tween-80 107 % of control | dose: 400.0 mg/kg/injection, schedule: Q04DX002 (ip), vehicle: saline with Tween-80 111 % of control

N#C/C(=C\C=C\c1ccccc1)c1cccc(Cl)c1
inactive: dose: 87.5 mg/kg/injection, schedule: Q01DX009 (ip), vehicle: Klucel (hydroxypropylcellulose) (HPC) 89 % of control | dose: 175.0 mg/kg/injection, schedule: Q01DX009 (ip), vehicle: Klucel (hydroxypropylcellulose) (HPC) 92 % of control | dose: 350.0 mg/kg/injection, schedule: Q01DX009 (ip), vehicle: Klucel (hydroxypropylcellulose) (HPC) 101 % of control

CCCCc1c(F)cccc1C(=O)O
inactive: dose: 12.5 mg/kg/injection, schedule: Q04DX003 (ip), vehicle: saline 101 % of control | dose: 25.0 mg/kg/injection, schedule: Q04DX003 (ip), vehicle: saline 108 % of control | dose: 50.0 mg/kg/injection, schedule: Q04DX003 (ip), vehicle: saline 87 % of control

COc1ccc(CN2CCCN(Cc3ccc(OC)cc3OC)C2c2cccc([N+](=O)[O-])c2O)c(OC)c1
inactive: dose: 50.0 mg/kg/injection, schedule: Q01DX001 (ip), vehicle: carboxymethylcellulose (CMC) 104 % of control | dose: 100.0 mg/kg/injection, schedule: Q01DX001 (ip), vehicle: carboxymethylcellulose (CMC) 98 % of control | dose: 200.0 mg/kg/injection, schedule: Q01DX001 (ip), vehicle: carboxymethylcellulose (CMC) 110 % of control | dose: 400.0 mg/kg/injection, schedule: Q01DX001 (ip), vehicle: carboxymethylcellulose (CMC) 98 % of control

COc1ccc(/C=C\C(=O)/C=C/c2ccc(OC)cc2)cc1
inactive: dose: 100.0 mg/kg/injection, schedule: Q01DX009 (ip), vehicle: Klucel (hydroxypropylcellulose) (HPC) 98 % of control | [6] 94 % of control | dose: 200.0 mg/kg/injection, schedule: Q01DX009 (ip), vehicle: Klucel (hydroxypropylcellulose) (HPC) 98 % of control | [7] 94 % of control | dose: 400.0 mg/kg/injection, schedule: Q01DX009 (ip), vehicle: Klucel (hydroxypropylcellulose) (HPC) 88 % of control | [8] 100 % of control
